Results from US12630521B2, “Arylamides and methods of use thereof” (Genzyme Corporation, priority 2019, dated 2026).

Experiments:
[1] = target: T1, CFTR (ΔF508 homozygous CF-HBE cells) (Homo sapiens, UniProt P13569, DEL508-508); experiment: TECC24 AUC fold over DMSO @10 uM: CFTR-mediated transepithelial chloride transport in primary CF-HBE cells; format: cell-based; details: 10 μM test agent, 48 hours, forskolin-stimulated IEQ AUC divided by vehicle AUC
T1 construct: Primary human bronchial epithelial cells from a ΔF508 homozygous CF donor; host or cells: primary CF-HBE cells (ΔF508/ΔF508 donor)
T1 sequence (P13569 with tags, fused parts or gaps DEL508-508): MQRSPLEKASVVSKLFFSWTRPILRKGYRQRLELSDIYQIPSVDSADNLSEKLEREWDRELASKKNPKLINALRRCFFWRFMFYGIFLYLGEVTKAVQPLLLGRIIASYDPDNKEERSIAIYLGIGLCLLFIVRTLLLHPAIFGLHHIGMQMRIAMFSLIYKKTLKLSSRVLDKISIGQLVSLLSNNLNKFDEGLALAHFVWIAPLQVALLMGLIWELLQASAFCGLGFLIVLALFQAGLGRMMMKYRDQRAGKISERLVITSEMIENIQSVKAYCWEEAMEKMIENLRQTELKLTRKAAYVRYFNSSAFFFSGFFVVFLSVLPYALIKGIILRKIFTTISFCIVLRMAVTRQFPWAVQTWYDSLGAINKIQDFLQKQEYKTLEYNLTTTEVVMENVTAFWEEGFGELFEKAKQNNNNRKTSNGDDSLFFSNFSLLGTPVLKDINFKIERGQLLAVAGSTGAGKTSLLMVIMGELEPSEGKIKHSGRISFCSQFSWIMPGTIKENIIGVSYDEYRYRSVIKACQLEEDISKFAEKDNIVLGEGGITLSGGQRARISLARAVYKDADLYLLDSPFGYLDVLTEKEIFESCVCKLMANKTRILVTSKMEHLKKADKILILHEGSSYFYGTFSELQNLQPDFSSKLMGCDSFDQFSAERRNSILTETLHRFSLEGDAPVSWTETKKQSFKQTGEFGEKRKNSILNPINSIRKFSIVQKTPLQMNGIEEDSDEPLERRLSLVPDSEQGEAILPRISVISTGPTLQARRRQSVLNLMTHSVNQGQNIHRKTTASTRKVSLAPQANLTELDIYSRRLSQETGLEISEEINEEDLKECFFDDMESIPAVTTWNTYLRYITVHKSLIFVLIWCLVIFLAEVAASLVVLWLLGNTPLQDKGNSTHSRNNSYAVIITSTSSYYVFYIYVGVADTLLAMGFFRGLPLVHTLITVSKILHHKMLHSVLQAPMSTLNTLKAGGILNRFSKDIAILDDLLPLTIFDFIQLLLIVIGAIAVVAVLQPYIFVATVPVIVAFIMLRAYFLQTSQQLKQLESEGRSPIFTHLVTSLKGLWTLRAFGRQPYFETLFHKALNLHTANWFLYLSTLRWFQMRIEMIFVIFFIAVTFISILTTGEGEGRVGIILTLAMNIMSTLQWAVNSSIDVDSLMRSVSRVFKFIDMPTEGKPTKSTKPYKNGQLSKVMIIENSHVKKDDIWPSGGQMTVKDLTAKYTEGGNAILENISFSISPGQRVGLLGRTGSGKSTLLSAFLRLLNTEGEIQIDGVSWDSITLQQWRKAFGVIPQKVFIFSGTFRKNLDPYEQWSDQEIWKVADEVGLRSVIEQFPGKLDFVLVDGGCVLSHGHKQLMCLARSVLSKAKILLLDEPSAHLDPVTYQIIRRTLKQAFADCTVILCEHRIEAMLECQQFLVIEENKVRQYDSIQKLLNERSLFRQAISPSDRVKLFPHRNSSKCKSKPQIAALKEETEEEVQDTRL
Protocol: Example 37: TECC24 AUC Fold Over DMSO @10 uM
The effects of a test agent on CFTR-mediated transepithelial chloride transport was measured using TECC24 recording analysis. Test agents were solubilized in DMSO. Solubilized test agents were mixed with incubation medium containing DMEM/F12, Ultroser G (2%; Crescent Chemical, catalog #67042), Hyclone Fetal Clone 11(2%; GE Healthcare, catalog #SH30066.02), bovine brain extract (0.25%; Lonza, catalog #CC-4098), insulin (2.5 μg/mL), IL-13 (10 ng/mL), hydrocortisone (20 nM), transferrin (2.5 μg/mL), triiodothyronine (500 nM), ethanolamine (250 nM), epinephrine (1.5 μM), phosphoethanolamine (250 nM), and retinoic acid (10 nM). Primary human bronchial epithelial cells from a ΔF508 homozygous CF donor (CF-HBE cells; from University of North Carolina Cystic Fibrosis Tissue Procurement Center), grown on Transwell HTS 24-well cell culture inserts (Costar, catalog #3378), were exposed to test agents or controls dissolved in incubation medium. The CF-HBE cells were cultured at 36.5° C. for 48 hours before TECC24 recordings were performed in the presence or absence of test agent, a positive control or vehicle (DMSO).
Following incubation, the transwell cell culture inserts containing the test agent or control-treated CF-HBE cells were loaded onto a TECC24 apparatus (TECC v7 or MTECC v2; EP Design) to record the transepithelial voltage (VT) and resistance (TEER) using 4 AgCl electrodes per well configured in current-clamp mode. The apical and basolateral bath solutions both contained (in mM) 140 NaCl, 5 KCl, 2 CaCl2, 1 MgCl2, 10 Hepes, and 10 glucose (adjusted to pH 7.4 with NaOH). To inhibit basal Na+ absorption, the ENaC inhibitor benzamil (10 μM) was added to the bath. Then, the adenylate cyclase activator, forskolin (10 μM), was added to the bath to activate CFTR. The forskolin-stimulated Cl— transport was halted by addition of CFTR inhibitor-172 (20 μM) to the bath at the end of the experiment to confirm specificity. VT and TEER recordings were digitally acquired at routine intervals using TECC or MTECC software (EP Design). VT and TEER were transformed into equivalent transepithelial Cl-current (IEQ), and the Area Under the Curve (AUC) of the IEQ time course between forskolin and CFTR inhibitor-172 addition is generated using Excel (Microsoft). Efficacy is expressed as the ratio of the test agent AUC divided by vehicle AUC. EC50s based on AUC are generated using the non-linear regression log(agonist) vs. response function in Prism software (GraphPad) with Hill Slope fixed=1.
If a test agent increased the AUC of the forskolin-stimulated IEQ relative to vehicle in CF-HBE cells, and this increase was inhibited by CFTR inhibitor-172, then the test agent was considered a CFTR corrector.

[2] = target: T2, human Cystic Fibrosis Transmembrane Conductance Regulator (CFTR) harboring the ΔF508 mutation (Homo sapiens, UniProt P13569, DEL508-508); experiment: H441 cell Emax and EC50: HRP-tagged ΔF508-CFTR cell-surface luminescence assay; format: cell-based; details: H441 cells expressing HRP-tagged ΔF508-CFTR, 27° C. for two nights; for EC50: 15-point dose-response; for Emax: NCI-H441, % of maximum VX809 signal
T2 construct: expressed in transfected cells; host or cells: H441 carcinoma cell line (G418 selection)
T2 sequence (P13569 with tags, fused parts or gaps DEL508-508): as above
Text: Example 36: H441 Cell Emax and EC50
Two cell lines were used, the H441 carcinoma line and the CFHBE41o− (41o−) human bronchial epithelial line. Both cell lines expressed human Cystic Fibrosis Transmembrane Conductance Regulator (CFTR) harboring the ΔF508 mutation and with an in-frame fusion in CFTR extracellular loop 4 of Horse Radish Peroxidase (HRP) under control of the CMV promoter. In the presence of the HRP tag, ΔF508-CFTR transported to the cell surface was detectable upon addition of an HRP substrate (Luminata Forte). Both cell types were cultivated at 37° C. with CO2.
For both cell types, the medium was changed every other day unless the culture was at low % confluence. Cells were used for the assays at ˜75% confluence.
DMSO/Compound Dilutions Plate for 15-Point Dose-Response Testing
To a polypropylene (PP) 384-well plate, 15 μls DMSO was added to all wells in columns 1-22 and 24 (low Control). 15 μls of 260 μM VX809 (Lumacaftor), Selleckchem S1565, was added to column 23 wells (high Control). 15 μls of 10 mM test compound or VX809 (control) were added to wells of row A. Serial dilutions of Row A compound were performed 2×15 μls in rows A through 0 (15-point).
A PP, 384-well plate containing the appropriate cell culture medium was prepared for each assay plate with 100 μls per well. For the doxycycline-induced 41o− cells, doxycycline for both the assay plate and the medium dilution plate was added at 0.0005 mg/ml to the medium.
Both cell lines were plated for the assay at 30 μls per 384-well at 3.4×10^e5 cells per ml (˜10K cells/well). H441 cells were plated on opaque, white, Corning plate 3704. 41o− cells were plated on collagen-coated opaque, white, Corning plate 356665. For 41o− cells, doxycycline was added to the medium.
Compound Addition/Assay Incubation
Using FX (Beckman) protocol, 10 μls diluted compound or medium was added per well to the Assay Plate as: 2 μls DMSO Dilution plate well is diluted in 100 μls of the Medium Dilution Plate well, mixed, and 10 μls is transferred to the Assay Plate.
The final assay dilution series is 24.5, 12.3, 6.1, 3.1, 1.5, 0.8, 0.4, 0.2, 0.1, 0.05, 0.02, 0.01, 0.006, 0.003, 0.001 and 0 μM. The 41o− assay plates were incubated at 37° C. w/CO2, the H441 assay plates were incubated at 27° C. w/CO2, each overnight for two nights.
Assay Result Determination
After being brought to room temperature, the assay plate liquid was removed. 30 uls of Luminata Forte (Millipore ELLUF0100) was added per well and incubated at room temperature for 10 min. The plates were then read on a Topcount, protocol LumiMatti (CPS, luminescence). The data was analyzed for % of maximum, maximum VX809 signal, and EC50 using Pearl and SPEED tools.

Structure (SMILES)	TECC24 AUC fold over DMSO [1]	EC50 [2]	Emax [2]
CC1(C(NC(=O)c2ccc3sccc3c2OCc2ccc(OC(F)(F)F)cc2)C(=O)O)CCCCC1 (stereo not drawn) [Compound 32-6, 2-(1-methylcyclohexyl)-2-(4-((4-(trifluoromethoxy)benzyl)oxy)-benzo[b]thiophene-5-carboxamido)acetic acid]	C (“C” refers to AUC @10 μM < 4)	3300 nM	142%
Cc1cc2ccc(C(=O)N[C@H](C(=O)O)C(C)(C)C)c(OCc3ccc(C(F)(F)F)cc3)c2s1 [Compound 33-11, (2S)-3,3-dimethyl-2-(2-methyl-7-((4-(trifluoromethyl)benzyl)oxy)-benzo[b]thiophene-6-carboxamido)butanoic acid]	B (“B” refers to AUC @10 μM between 4-6)	474 nM	187%
CCC(C)(C)[C@H](NC(=O)c1ccc2cc(C)sc2c1OCc1ccc(OC(F)(F)F)cc1)C(=O)O [Compound 33-18, (2S)-3,3-dimethyl-2-(2-methyl-7-((4-(trifluoromethoxy)benzyl)oxy)-benzo[b]thiophene-6-carboxamido)pentanoic acid]	A (“A” refers to AUC @10 μM > 6)	1150 nM	217%
CCC(C)(C)[C@H](NC(=O)c1ccc2cc(C(F)(F)F)sc2c1OCc1ccc(C(F)(F)F)cc1)C(=O)O [Compound 33-28, (2S)-3,3-dimethyl-2-(2-(trifluoromethyl)-7-((4-(trifluoromethyl)benzyl)oxy)-[b]thiophene-6-carboxamido)pentanoic acid]	A (“A” refers to AUC @10 μM > 6)	562 nM	130%
CC(C)(C)[C@H](NC(=O)c1ccc2sccc2c1OCc1nc2ccccc2s1)C(=O)O [Compound 32-13, (2S)-2-(4-(benzo[d]thiazol-2-ylmethoxy)-benzo[b]thiophene-5-carboxamido)-3,3-dimethylbutanoic acid]	C (“C” refers to AUC @10 μM < 4)	4120 nM	143%
CCc1cc2c(OCc3ccc(C(F)(F)F)cc3)c(C(=O)N[C@H](C(=O)O)C(C)(C)C)ccc2s1 [Compound 33-21, (2S)-2-(2-ethyl-4-((4-(trifluoromethyl)benzyl)oxy)-benzo[b]thiophene-5-carboxamido)-3,3-dimethylbutanoic acid]	A (“A” refers to AUC @10 μM > 6)	337 nM	268%
COc1cc2c(OCc3ccc(C(F)(F)F)cc3)c(C(=O)N[C@H](C(=O)O)C(C)(C)C)ccc2s1 [Compound 33-7, (2S)-2-(2-methoxy-4-((4-(trifluoromethyl)benzyl)oxy)-benzo[b]thiophene-5-carboxamido)-3,3-dimethylbutanoic acid]	A (“A” refers to AUC @10 μM > 6)	641 nM	312%
CCC(C)(C)[C@H](NC(=O)c1ccc2sc(C(F)(F)F)cc2c1OCc1ccc(C(F)(F)F)cc1)C(=O)O [Compound 33-25, (2S)-3,3-dimethyl-2-(2-(trifluoromethyl)-4-((4-(trifluoromethyl)benzyl)oxy)-benzo[b]thiophene-5-carboxamido)pentanoic acid]	A (“A” refers to AUC @10 μM > 6)	577 nM	200%
CCC(C)(C)[C@H](NC(=O)c1ccc2sc(CCC(C)C)cc2c1OCc1ccc(C(F)(F)F)cc1)C(=O)O [Compound 33-16, (2S)-2-(2-isopentyl-4-((4-(trifluoromethyl)benzyl)oxy)-benzo[b]thiophene-5-carboxamido)-3,3-dimethylpentanoic acid]	B (“B” refers to AUC @10 μM between 4-6)	340 nM	218%
CCC(C)(C)[C@H](NC(=O)c1ccc2sc(C)cc2c1OCc1ccc(C(F)(F)F)cc1)C(=O)O [Compound 33-24, (2S)-3,3-dimethyl-2-(2-methyl-4-((4-(trifluoromethyl)benzyl)oxy)-benzo[b]thiophene-5-carboxamido)pentanoic acid]	A (“A” refers to AUC @10 μM > 6)	412 nM	270%
Cc1c(Cl)sc2ccc(C(=O)N[C@H](C(=O)O)C3(C)CC3)c(OCc3ccc(C(F)(F)F)cc3)c12 [Compound 34-7, (S)-2-(2-chloro-3-methyl-4-((4-(trifluoromethyl)benzyl)oxy)-benzo[b]thiophene-5-carboxamido)-2-(1-methylcyclopropyl)acetic acid]	A (“A” refers to AUC @10 μM > 6)	612 nM	84.2%
CCc1cc2c(OCc3ccc(C(F)(F)F)cc3)c(C(=O)N[C@H](C(=O)O)C(C)(C)CC)ccc2s1 [Compound 33-27, (2S)-2-(2-ethyl-4-((4-(trifluoromethyl)benzyl)oxy)-benzo[b]thiophene-5-carboxamido)-3,3-dimethylpentanoic acid]	A (“A” refers to AUC @10 μM > 6)	309 nM	262%
CCC(C)(C)[C@H](NC(=O)c1ccc2cc(C)sc2c1OCc1ccc(C(F)(F)F)cc1)C(=O)O [Compound 33-19, (2S)-3,3-dimethyl-2-(2-methyl-7-((4-(trifluoromethyl)benzyl)oxy)-benzo[b]thiophene-6-carboxamido)pentanoic acid]	A (“A” refers to AUC @10 μM > 6)	427 nM	255%
CC(C)(C)[C@H](NC(=O)c1ccc2sc(C(F)F)cc2c1OCc1ccc(C(F)(F)F)cc1)C(=O)O [Compound 33-3, (2S)-2-(2-(difluoromethyl)-4-((4-(trifluoromethyl)benzyl)oxy)-benzo[b]thiophene-5-carboxamido)-3,3-dimethylbutanoic acid]	A (“A” refers to AUC @10 μM > 6)	884 nM	350%
